Measured values as given in ChEMBL document CHEMBL1137957, “Probing pockets S2-S4' of the gamma-secretase active site with (hydroxyethyl)urea peptidomimetics” (Bioorg Med Chem Lett, 2004).

Molecular target: Gamma-secretase
Assay: Inhibition of amyloid-beta production in Chinese hamster ovary (CHO) cells expressing human amyloid precursor protein (APP)
Assay type: functional, cell-based

Row | Structure (SMILES) | IC50
1 | COC(=O)[C@H](Cc1ccccc1)NC(=O)[C@H](CC(C)C)NC(=O)N(C)C[C@@H](O)[C@H](Cc1ccccc1)NC(=O)OC(C)(C)C | 3100 nM
2 | COC(=O)[C@H](CC(C)C)NC(=O)[C@@H](NC(=O)[C@H](CC(C)C)NC(=O)N(Cc1ccccc1)C[C@@H](O)[C@H](Cc1ccccc1)NC(=O)OC(C)(C)C)C(C)C | 540 nM
3 | COC(=O)[C@H](CC(C)C)NC(=O)N(Cc1ccccc1)C[C@@H](O)[C@H](Cc1ccccc1)NC(=O)OC(C)(C)C | 8000 nM
4 | COC(=O)[C@H](CC(C)C)NC(=O)[C@H](CC(C)C)NC(=O)N(Cc1ccccc1)C[C@@H](O)[C@H](Cc1ccccc1)NC(=O)OC(C)(C)C | 650 nM
5 | COC(=O)[C@@H](NC(=O)[C@@H](NC(=O)[C@H](CC(C)C)NC(=O)N(Cc1ccccc1)C[C@@H](O)[C@H](Cc1ccccc1)NC(=O)OC(C)(C)C)C(C)C)C(C)C | 530 nM
6 | COC(=O)[C@H](C)NC(=O)[C@@H](NC(=O)[C@H](CC(C)C)NC(=O)N(Cc1ccccc1)C[C@@H](O)[C@H](Cc1ccccc1)NC(=O)OC(C)(C)C)C(C)C | 670 nM
7 | COC(=O)[C@H](Cc1ccccc1)NC(=O)[C@H](CC(C)C)NC(=O)N(C[C@@H](O)[C@H](Cc1ccccc1)NC(=O)OC(C)(C)C)C(C)C | 22000 nM
8 | COC(=O)[C@@H](NC(=O)[C@H](CC(C)C)NC(=O)N(Cc1ccccc1)C[C@@H](O)[C@H](Cc1ccccc1)NC(=O)[C@H](Cc1ccccc1)NC(=O)OC(C)(C)C)C(C)C | 500 nM
9 | COC(=O)[C@H](Cc1ccccc1)NC(=O)[C@H](Cc1ccccc1)NC(=O)N(Cc1ccccc1)C[C@@H](O)[C@H](Cc1ccccc1)NC(=O)OC(C)(C)C | 18000 nM
10 | COC(=O)[C@H](C)NC(=O)[C@H](CC(C)C)NC(=O)N(Cc1ccccc1)C[C@@H](O)[C@H](Cc1ccccc1)NC(=O)OC(C)(C)C | 20000 nM
11 | COC(=O)[C@H](Cc1ccccc1)NC(=O)[C@H](CC(C)C)NC(=O)N(Cc1ccccc1)C[C@@H](O)[C@H](Cc1ccccc1)NC(=O)OC(C)(C)C (stereo in doubt; 9) | 400 nM

The next lines start with the values.

Row | IC50 | Structure (SMILES)
12 | 230 nM | COC(=O)[C@@H](NC(=O)[C@H](CC(C)C)NC(=O)N(Cc1ccccc1)C[C@@H](O)[C@H](Cc1ccccc1)NC(=O)[C@H](CC(C)C)NC(=O)OC(C)(C)C)C(C)C
13 | 250 nM | COC(=O)[C@H](Cc1ccccc1)NC(=O)[C@@H](NC(=O)[C@H](CC(C)C)NC(=O)N(Cc1ccccc1)C[C@@H](O)[C@H](Cc1ccccc1)NC(=O)OC(C)(C)C)C(C)C
14 | 270 nM | CC[C@H](C)[C@H](NC(=O)[C@@H](NC(=O)[C@H](CC(C)C)NC(=O)N(Cc1ccccc1)C[C@@H](O)[C@H](Cc1ccccc1)NC(=O)OC(C)(C)C)C(C)C)C(=O)OC
15 | 400 nM | COC(=O)[C@H](Cc1ccccc1)NC(=O)[C@H](CC(C)C)NC(=O)N(CC(C)C)C[C@@H](O)[C@H](Cc1ccccc1)NC(=O)OC(C)(C)C
16 | 150 nM | COC(=O)[C@@H](NC(=O)[C@H](CC(C)C)NC(=O)N(Cc1ccccc1)C[C@@H](O)[C@H](Cc1ccccc1)NC(=O)[C@H](C)NC(=O)OC(C)(C)C)C(C)C
17 | 400 nM | COC(=O)[C@H](Cc1ccccc1)NC(=O)[C@@H](NC(=O)N(Cc1ccccc1)C[C@@H](O)[C@H](Cc1ccccc1)NC(=O)OC(C)(C)C)C(C)C
18 | 70 nM | COC(=O)[C@@H](NC(=O)[C@H](CC(C)C)NC(=O)N(Cc1ccccc1)C[C@@H](O)[C@H](Cc1ccccc1)NC(=O)[C@@H](NC(=O)OC(C)(C)C)C(C)C)C(C)C
19 | 140 nM | COC(=O)[C@H](Cc1ccccc1)NC(=O)[C@H](C)NC(=O)N(Cc1ccccc1)C[C@@H](O)[C@H](Cc1ccccc1)NC(=O)OC(C)(C)C
20 | 220 nM | COC(=O)[C@@H](NC(=O)[C@H](CC(C)C)NC(=O)N(Cc1ccccc1)C[C@@H](O)[C@H](Cc1ccccc1)NC(=O)OC(C)(C)C)C(C)C
21 | 390 nM | COC(=O)[C@H](Cc1ccccc1)NC(=O)[C@H](CC(C)C)NC(=O)N(Cc1ccccc1)C[C@@H](O)[C@H](Cc1ccccc1)NC(=O)OC(C)(C)C (stereo in doubt; 2)
22 | 390 nM | COC(=O)[C@H](Cc1ccccc1)NC(=O)[C@H](CC(C)C)NC(=O)N(Cc1ccccc1)C[C@@H](O)[C@H](Cc1ccccc1)NC(=O)OC(C)(C)C (stereo in doubt; 12)
